Assays:
[1] = biological target: T1, α1/β1/γ2 GABAAR (Rattus norvegicus, UniProt P15431+P62813); assay: Patch clamp, HEK293, β1-containing GABAAR; format: cell-based; details: wild-type α1/β1/γ2
T1 construct: expressed in transfected cells; host or cells: HEK293

[2] = biological target: T2, GABAAR-mediated currents, β2E181G KI mice (Mus musculus, UniProt P63137, E206G); assay: Whole-cell recording of CA1 neurons, hippocampal slices of homozygous β2E181G KI mice; format: cell-based; details: L-Glu 50 µM; KI slices
T2 construct: from tissue; host or cells: acute hippocampal slices of homozygous β2E181G knock-in mice (C57BL/6J), CA1 neurons
Description: (§1) We next determined if glutamate-mediated allosteric potentiation of GABAAR function was impaired in hippocampal slices acutely prepared from postnatal 90-day-old KI mice. Whole-cell recordings of CA1 neurons were performed under voltage clamp configuration at a holding potential of −60 mV.
(§2) Mice were deeply anesthetized with urethane (1.5 g/kg, i.p.) and transcardially perfused with ice cold sucrose hypertonic cutting solution (in mM: KCl 3.0, NaH2PO4.H2O 1.25, NaHCO3 26, Na-vitamin C 0.4, Na-lactate 2.0, Na-pyruvate 2.0, D-glucose 10.0, Sucrose 220, CaCl2 0.1, MgCl2 2, MgSO4 4.0, pH 7.4, 290–300 mOsm/l) prior to decapitation as described previously.[47] After decapitation, the brain was rapidly removed and transferred to the ice cold cutting solution bubbled with 95% O2 and 5% CO2, and acute coronal brain slices (400 μm) were prepared on a Leica vibratome (VT1200S, Germany). All brain slices were placed into a standard artificial cerebral spinal fluid (ACSF) (in mM: NaCl 124, KCl 2.8, NaH2PO4.H2O 1.25, NaHCO3 26, Na-vitamin C 0.4, Na-lactate 2.0, Na-pyruvate 2.0, D-glucose 10.0, CaCl2 2, MgSO4 1.2, pH 7.4, 290–300 mOsm/l) incubated at 35 °C for 2 h prior to recording. Field excitatory postsynaptic potential (fEPSP) recordings were performed under current-clamp mode using HEKA EPC10 patch-clamp amplifier (HEKA Electronic, Lambrecht/Pfalz, Germany). […]

[3] = biological target: T3, α2/β2/γ2 GABAARs (Rattus norvegicus, UniProt P23576+P63138); assay: Patch clamp, HEK293, α2-containing GABAAR; format: cell-based; details: wild-type α2/β2/γ2
T3 construct: expressed in transfected cells; host or cells: HEK293

[4] = biological target: T4, α1β2γ2E168K GABAAR (Rattus norvegicus, UniProt P18508+P62813+P63138, E206K); assay: Patch clamp, HEK293, mutant GABAAR; format: cell-based
T4 construct: expressed in transfected cells; host or cells: HEK293
Description: (§3) However, for the GABAAR containing only α and β subunits, there are two α^+/β^− interfaces, with potentially two glutamate-binding pockets (Fig. 5a; Right).
(§4) HEK293 cells were cultured in DMEM (Invitrogen) supplemented with 10% fetal bovine serum. Cells were grown to 40–60% confluence and transiently transfected using Lipofectamine 2000 (Invitrogen) with 1:0.5–1 plasmid/lipid ratio. Cells were transfected with a pBK-CMV expression vector containing a rat recombinant GABAAR α, β or γ subunits. Co-transections were done with a plasmid ratio of 1:1 αβ and 2:2:1 for αβγ subunit combinations, respectively. pcDNA3.1-GFP was also co-transfected along with GABAAR subunits as a transfected marker in order to facilitate the visualization of the transfected cells during electrophysiological experiments. Cells were re-plated on glass coverslips after 15–20 h transfection and were cultured for an additional 15–24 h before whole-cell patch-clamp recordings.
(§5) The site-directed mutagenesis of α, β or γ subunits were performed by using the QuikChange method (Stratagene). […] Wild-type or mutant subunits were transfected in HEK293 cells and subjected to electrophysiology examinations.
(§6) Whole-cell patch-clamp recordings were performed under voltage-clamp mode using an Axopatch 200B or 1D patch-clamp amplifier (Molecular Devices) on HEK293 cells and cultured neurons. Whole-cell currents were recorded at a holding potential of −60 mV, and signals were filtered at 2 kHz, digitized at 10 kHz (Digidata 1322 A). Recording pipettes (3–5 MΩ) were filled with the intracellular solution that contained (mM): CsCl 140, HEPES 10, Mg-ATP 4, QX-314 5, pH 7.20; osmolarity, 290–295 mOsm. BAPTA (10 mM) was added in the intracellular solution. The coverslips were continuously superfused with the extracellular solution containing (mM): NaCl 140, KCl 5.4, HEPES 10, MgCl2 1.0, CaCl2 1.3, glucose 20, pH 7.4; osmolarity, 305–315 mOsm. […] Dose–response curves were created by fitting data to Hill equation: I = Imax/[1 + (EC50/[A])^n], where I is the current, Imax is the maximum current, [A] is a given concentration of agonist, n is the Hill coefficient. […] All experiments were performed at room temperature.

[5] = biological target: T5, α1β2γ2R197E GABAAR (Rattus norvegicus, UniProt P18508+P62813+P63138, R235E); assay: Patch clamp, HEK293, mutant GABAAR; format: cell-based
T5 construct: expressed in transfected cells; host or cells: HEK293
Description: as §3, §4, §5, §6

[6] = tested on: GABAAR-mediated currents, WT mice; assay: Whole-cell recording of CA1 neurons, hippocampal slices of WT mice; format: cell-based, mouse; details: L-Glu 50 µM
Description: as §1, §2

[7] = biological target: T6, α1/β3/γ2 GABAAR (Rattus norvegicus, UniProt P62813+P63079); assay: Patch clamp, HEK293, β3-containing GABAAR; format: cell-based; details: wild-type α1/β3/γ2
T6 construct: expressed in transfected cells; host or cells: HEK293
T6 sequence (P62813 28-455): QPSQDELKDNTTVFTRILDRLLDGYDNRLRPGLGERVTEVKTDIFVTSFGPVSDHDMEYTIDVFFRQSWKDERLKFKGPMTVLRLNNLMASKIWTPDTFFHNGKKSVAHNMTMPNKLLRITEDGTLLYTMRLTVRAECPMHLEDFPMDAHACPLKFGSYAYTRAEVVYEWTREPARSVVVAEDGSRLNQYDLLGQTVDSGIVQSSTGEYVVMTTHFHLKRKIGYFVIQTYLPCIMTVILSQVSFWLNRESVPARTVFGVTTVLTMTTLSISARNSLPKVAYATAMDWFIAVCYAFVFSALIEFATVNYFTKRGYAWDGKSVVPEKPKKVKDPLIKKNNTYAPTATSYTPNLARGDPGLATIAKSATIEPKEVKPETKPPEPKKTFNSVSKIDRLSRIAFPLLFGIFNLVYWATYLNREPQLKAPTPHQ
T6 sequence (P63079 26-473): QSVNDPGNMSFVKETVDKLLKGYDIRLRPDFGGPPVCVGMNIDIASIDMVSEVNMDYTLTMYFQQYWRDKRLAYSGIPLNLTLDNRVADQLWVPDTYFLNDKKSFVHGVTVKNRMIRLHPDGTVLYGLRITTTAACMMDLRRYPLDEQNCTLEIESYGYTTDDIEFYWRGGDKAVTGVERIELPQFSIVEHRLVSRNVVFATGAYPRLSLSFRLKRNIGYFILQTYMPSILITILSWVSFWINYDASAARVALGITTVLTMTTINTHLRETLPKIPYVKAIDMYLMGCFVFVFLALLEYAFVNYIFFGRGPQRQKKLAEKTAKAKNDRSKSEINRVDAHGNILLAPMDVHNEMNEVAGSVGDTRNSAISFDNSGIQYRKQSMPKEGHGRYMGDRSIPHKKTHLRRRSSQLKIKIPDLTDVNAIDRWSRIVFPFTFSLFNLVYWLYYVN
T6 sequence (P18508 39-466 partner): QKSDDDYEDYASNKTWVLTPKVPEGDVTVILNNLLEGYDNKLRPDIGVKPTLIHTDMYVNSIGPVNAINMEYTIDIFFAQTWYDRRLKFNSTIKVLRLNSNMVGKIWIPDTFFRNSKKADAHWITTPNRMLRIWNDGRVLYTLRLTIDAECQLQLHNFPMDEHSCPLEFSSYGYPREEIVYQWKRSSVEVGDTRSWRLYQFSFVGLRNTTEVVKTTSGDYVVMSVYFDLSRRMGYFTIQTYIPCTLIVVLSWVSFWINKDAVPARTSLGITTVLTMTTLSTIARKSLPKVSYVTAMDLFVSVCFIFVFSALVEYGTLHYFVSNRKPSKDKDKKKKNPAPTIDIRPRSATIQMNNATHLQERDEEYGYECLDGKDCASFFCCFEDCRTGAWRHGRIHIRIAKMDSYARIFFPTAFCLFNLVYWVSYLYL

T5 sequence (P62813 28-455): as the sequence (P62813 28-455) above
T5 sequence (P63138 26-474): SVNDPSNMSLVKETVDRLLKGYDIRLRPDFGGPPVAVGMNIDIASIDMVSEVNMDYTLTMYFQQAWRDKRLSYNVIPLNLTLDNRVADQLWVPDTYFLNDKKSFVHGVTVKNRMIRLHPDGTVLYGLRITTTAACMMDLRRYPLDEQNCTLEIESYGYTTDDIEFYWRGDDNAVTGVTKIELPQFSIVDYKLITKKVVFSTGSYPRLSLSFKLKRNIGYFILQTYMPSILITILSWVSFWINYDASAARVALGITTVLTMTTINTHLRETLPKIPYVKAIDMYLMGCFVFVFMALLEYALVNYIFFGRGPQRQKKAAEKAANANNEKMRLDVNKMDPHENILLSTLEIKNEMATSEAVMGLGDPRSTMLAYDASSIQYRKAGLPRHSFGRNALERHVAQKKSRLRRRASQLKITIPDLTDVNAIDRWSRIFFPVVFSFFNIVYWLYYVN
T5 sequence (P18508 39-466 R235E): as the sequence (P18508 39-466 partner) above, with R197E counted along it
T4 sequence (P62813 28-455): as the sequence (P62813 28-455) above
T4 sequence (P63138 26-474, stated change not applied): as the sequence (P63138 26-474) above
T4 sequence (P18508 39-466 E206K): as the sequence (P18508 39-466 partner) above, with E168K counted along it
T3 sequence (P23576 29-451): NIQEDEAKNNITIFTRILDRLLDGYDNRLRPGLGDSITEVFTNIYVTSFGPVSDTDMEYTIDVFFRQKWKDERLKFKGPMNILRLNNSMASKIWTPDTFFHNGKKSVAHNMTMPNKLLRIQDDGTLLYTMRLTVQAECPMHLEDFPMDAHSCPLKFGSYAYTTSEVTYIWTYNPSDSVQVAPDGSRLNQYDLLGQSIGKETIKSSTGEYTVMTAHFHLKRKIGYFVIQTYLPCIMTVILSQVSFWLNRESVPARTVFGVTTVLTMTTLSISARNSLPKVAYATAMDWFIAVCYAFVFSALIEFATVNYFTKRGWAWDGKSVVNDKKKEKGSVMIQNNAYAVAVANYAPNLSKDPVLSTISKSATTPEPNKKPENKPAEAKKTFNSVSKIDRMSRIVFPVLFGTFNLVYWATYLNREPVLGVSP
T3 sequence (P63138 26-474): as the sequence (P63138 26-474) above
T3 sequence (P18508 39-466 partner): as the sequence (P18508 39-466 partner) above
T2 sequence (P63137 26-512 E206G): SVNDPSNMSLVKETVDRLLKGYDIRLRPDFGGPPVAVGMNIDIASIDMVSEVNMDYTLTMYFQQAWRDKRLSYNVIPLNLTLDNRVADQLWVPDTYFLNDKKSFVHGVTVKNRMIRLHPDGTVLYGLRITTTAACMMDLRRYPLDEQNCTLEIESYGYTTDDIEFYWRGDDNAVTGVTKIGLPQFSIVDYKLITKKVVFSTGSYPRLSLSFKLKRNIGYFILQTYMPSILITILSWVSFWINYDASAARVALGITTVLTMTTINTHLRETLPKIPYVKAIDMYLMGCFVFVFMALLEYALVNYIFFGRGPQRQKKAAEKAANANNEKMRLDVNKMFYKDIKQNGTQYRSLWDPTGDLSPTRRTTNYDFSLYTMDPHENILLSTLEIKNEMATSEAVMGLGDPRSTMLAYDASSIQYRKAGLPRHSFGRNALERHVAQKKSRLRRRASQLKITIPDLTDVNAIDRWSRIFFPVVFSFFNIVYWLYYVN
T1 sequence (P62813 28-455): as the sequence (P62813 28-455) above
T1 sequence (P15431 26-474): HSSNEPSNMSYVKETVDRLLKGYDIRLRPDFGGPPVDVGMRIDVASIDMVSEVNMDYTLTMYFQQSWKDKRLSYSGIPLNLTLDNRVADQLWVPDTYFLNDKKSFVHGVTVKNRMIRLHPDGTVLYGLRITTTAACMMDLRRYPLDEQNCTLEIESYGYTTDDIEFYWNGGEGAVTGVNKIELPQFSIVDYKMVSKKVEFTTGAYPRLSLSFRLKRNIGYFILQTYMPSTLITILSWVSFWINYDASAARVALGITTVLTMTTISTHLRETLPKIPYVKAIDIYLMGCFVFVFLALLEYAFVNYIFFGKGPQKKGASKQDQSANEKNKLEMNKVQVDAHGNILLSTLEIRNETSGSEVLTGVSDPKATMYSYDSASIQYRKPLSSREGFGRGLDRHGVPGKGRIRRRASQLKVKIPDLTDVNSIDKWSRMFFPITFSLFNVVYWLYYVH
T1 sequence (P18508 39-466 partner): as the sequence (P18508 39-466 partner) above

For `N[C@@H](CCC(=O)O)C(=O)O` [glutamate, Glutamate], the “potentiation of GABA-induced currents by glutamate” value [1] was “could also potentiate GABA-induced currents”, the “eIPSCs relative to baseline” value [2] was 114.2 ± 9.9% and the “potentiation of GABA currents by glutamate” value [3] was “capable of potentiating GABA currents”. For the same compound, the “Glu-induced potentiation, % of wild-type α1β2γ2” value ([4]; Glu 100 μM) was 169.4 ± 32.5%, the “Glu-induced potentiation, % of wild-type α1β2γ2” value ([4]; Glu 1 mM) was 225.7 ± 51.9% and the “Glu-induced potentiation, % of wild-type α1β2” value ([5]; Glu 100 μM) was 92.7 ± 22.0%. For the same compound, the “Glu-induced potentiation, % of wild-type α1β2γ2” value ([5]; Glu 100 μM) was 204.9 ± 48.7%, the “Glu-induced potentiation, % of wild-type α1β2” value ([5]; Glu 1 mM) was 82.4 ± 16.9% and the “Glu-induced potentiation, % of wild-type α1β2γ2” value ([5]; Glu 1 mM) was 190.9 ± 39.2%. The “GABAAR-mediated IPSC currents relative to baseline” value [6] was 153.0 ± 9.5% and the “potentiation of GABA-induced currents by glutamate” value [7] was “could also potentiate GABA-induced currents”.

— publication PMC9527238, “Glutamate and GABAA receptor crosstalk mediates homeostatic regulation of neuronal excitation in the mammalian brain” (Signal Transduction and Targeted Therapy, 2022)
